Results as given in the NIST ThermoML archive (doi:10.1021/je020113t).
± gives the expanded uncertainty stated by the source.

Details: visual observation

Row | Normal melting temperature (Crystal) | Normal melting temperature (Crystal 1) | Structure (SMILES)
1 | 89.10 ± 0.5 °C |  | c1c[nH]cn1 [1H-imidazole]
2 |  | 146 ± 0.5 °C | Cc1ncc[nH]1 [2-methylimidazole]
3 | 38.4 ± 0.5 °C |  | Cc1nccn1C [1,2-dimethyl-1H-imidazole]
